Consider 105 compounds from the CATMoS acute toxicity set (Mansouri et al. 2021).

The data set in a line: GHS categories as the set defines them, by LD50: 1 up to 5, 2 up to 50, 3 up to 300, 4 up to 2000, 5 above 2000 mg/kg. Particulars: rat; in vivo; po.

As for `CCCCCCC(O)CCCCCCCCCCC(=O)OCC(COC(=O)CCCCCCCCCCC(O)CCCCCC)OC(=O)CCCCCCCCCCC(O)CCCCCC` (stereo not given), the GHS category came out at 5.
Compound `O=S(=O)(O)c1cc(O)ccc1O` gave a GHS category of 5.
For the compound `CC1(C(O)CO)OC(c2ccc(Cl)cc2)OC2COC(c3ccc(Cl)cc3)OC21` (stereo not given), the GHS category came to 5.
In the case of `Cc1cc(C)nc(NC(=O)NS(=O)(=O)c2ccccc2C(=O)OC2COC2)n1`, the GHS category is listed as 5.
The compound `CC(C)N1C2CCC1CC(=O)C2` returned a GHS category of 3.
In the case of `CC12CCC3c4ccc(OC(=O)c5ccccc5)cc4CCC3C1CCC2OC(=O)CO` (stereo not given), the GHS category turned out to be 5.
In turn, `Cc1cc(C2(c3ccc(O)c(C)c3)CCCCC2)ccc1O` had a GHS category of 5.
For `Nc1nc2c(ncn2[C@@H]2O[C@H](COP(=O)(O)O)[C@@H](O)[C@H]2O)c(=O)[nH]1` the value was 5.
Then `CNS(=O)(=O)c1ccccc1-c1nnc(N)s1`, with 5; and `O=C1CC[C@H]2CO[C@@H]1O2`, with 5; and `CN(Cc1ccc(C(C)(C)C)cc1)Cc1cccc2ccccc12`, with 5.
For `CCCCCCCCCCCCCCCCCNP1(=S)OCc2cc([N+](=O)[O-])ccc2O1` (stereo not given) the value was 3; for `NP(N)(=O)Oc1ccccc1`, 4.
In the case of `CNCC(O)CO` (stereo not given), the GHS category is recorded as 5.
With `CCCCC1C=C(C)CC(C)O1` (stereo not given), the GHS category was 5.
Compound `NC(=O)NCCO` showed a GHS category of 5.
Then `COCOC1CCCCCCCCCCC1`, with 5.
For `CC1(C(=O)O)CCCCC1` the value was 4.
Then `CC1=CCC(C(C)(C)OC(=O)C(C)C)CC1` (stereo not given), with 5; and `CC(C)c1cc(C(C)C)c([N+](=O)[O-])c(C(C)C)c1[N+](=O)[O-]`, with 5.
Compound `CC1CC(OC(=O)C(C)(C)Oc2ccccc2Cl)CC(C)(C)C1` (stereo not given) registered a GHS category of 5.
Compound `CCC(O)=C1C(=O)CC(C(=O)O)CC1=O` (stereo not given) yielded a GHS category of 5.
For `CC[C@H](C)C(=O)O[C@H]1C[C@H](O)C=C2C=C[C@H](C)[C@H](CC[C@@H](O)C[C@@H](O)CC(=O)O)[C@H]21`, the GHS category came out at 5.
`O=C(NNc1cccc(C(F)(F)F)c1)c1cccnc1Cl` gave a GHS category of 4.
Then `CCCCCCCCCCCOC(=O)c1ccccc1C(=O)OCCCCCCCCCCC`, with 5; and `c1cc2c(c(OCCN3CCCCC3)c1)OCCO2`, with 5; and `CCC1(C)Oc2cccc(OC(=O)N(C)C(C)=O)c2O1` (stereo not given), with 3.
Then `CC[C@H](C)[C@@H]1NC(=O)[C@H](Cc2ccc(O)cc2)NC(=O)[C@@H](N)CSSC[C@@H](C(=O)N2CCC[C@H]2C(=O)N[C@@H](CC(C)C)C(=O)NCC(N)=O)NC(=O)[C@H](CC(N)=O)NC(=O)[C@H](CCC(N)=O)NC1=O`, with 2.
Take `O=C1CC(Nc2ccc([N+](=O)[O-])cc2)=NN1c1c(Cl)cc(Cl)cc1Cl`: the GHS category is on record as 5.
`CCOC[C@@H]1CO[C@@](Cn2ccnc2)(c2cc3cc(Cl)cc(Cl)c3o2)O1` displayed a GHS category of 4.
For `CC[C@H]1CO[C@@](Cn2cncn2)(c2cc3cc(Cl)ccc3o2)O1` the value was 4; for `O=C1C(O)N=C(c2ccccc2)c2cc(Cl)ccc2N1CC1CC1` (stereo not given), 5; for `FC(Cl)C(F)(F)C(F)(F)Cl` (stereo not given), 5.
`CCS(=O)(=O)c1nc2ccccn2c1S(=O)(=O)NC(=O)Nc1nc(OC)cc(OC)n1` returned a GHS category of 5.
Compound `O=S(=O)(O)Oc1ccc(C(c2ccc(O)cc2)c2ccccn2)cc1` (stereo not given) gave a GHS category of 5.
`CCO[Si](CCCCl)(OCC)OCC` had a GHS category of 5.
On to `CCC(C)(C)c1ccccc1`, for which the GHS category came to 5.
Then `O=C(O)CCCCCCCC(=O)O`, with 5; and `CN(C)C1=NC(=O)C(c2ccccc2)O1` (stereo not given), with 5.
The compound `O=C(O)c1cc(C(=O)O)cc([N+](=O)[O-])c1` showed a GHS category of 5.
With `CCOC(=O)C(=O)Nc1cc(OC)nc(-c2ccccc2)n1`, the GHS category stood at 4.
For `CC=Cc1ccc(OCCCCC)c(OC)c1` the value was 5; for `CCCCCCCNC(=O)c1cnc2cccc(C)n2c1=O`, 3.
For `CC(C)=CCC(C#N)(CCN1CCCCC1)c1cccc2ccccc12` (stereo not given) the value was 4; for `CCC(=O)OC(OC(C(=O)O)[P+](=O)CCCCc1ccccc1)C(C)C` (stereo not given), 5.
Then `NC(=O)[C@@H]1CCCN1C(=O)[C@H](Cc1cnc[nH]1)NC(=O)[C@@H]1CCC(=O)N1`, with 5.
Take `CN1C(C(=O)Nc2ccccn2)=C(OC(=O)C(C)(C)C)c2sccc2S1(=O)=O`: the GHS category is listed as 2.
For `COc1ccc(C(=O)C2CC2)cc1` the value was 4; for `CC(=O)C(O)O`, 5; for `NC(=O)Oc1ccccc1C(=O)Oc1ccccc1[N+](=O)[O-]`, 5.
On to `CC1NC(=S)C(C(O)O)C(O)C1C` (stereo not given), for which the GHS category amounted to 5.
Then `CCC1=NN(C(=O)NC(=O)c2ccc(Cl)cc2)C(C)(CC)C1` (stereo not given), with 5.
Turning to `O=C(C=Cc1ccccc1)NCCO`, the GHS category came to 5.
On to `CCCCCCCCCCCCCCCCOC(=O)C(CC)CCCC` (stereo not given), for which the GHS category is 5.
For `Nc1ccc(C2(c3ccc(N)c(Cl)c3)c3ccccc3-c3ccccc32)cc1Cl` the value was 5; for `Cc1c([N+](=O)[O-])cc2c(c1[N+](=O)[O-])C(C)(C)CC2(C)C`, 5; for `CC12CCC3c4ccc(OC(=O)c5ccccc5)cc4CCC3C1CCC2OC(=O)COC(=O)CCCc1ccc(NCCCl)cc1` (stereo not given), 5.
In turn, `CCOc1ccc(NC(=O)c2cc3ccccc3cc2O)cc1` showed a GHS category of 5.
Consider `CC1CC(NC(N)=O)NC(=O)N1` (stereo not given), for which the GHS category turned out to be 5.
Compound `CCCCC(CC)COC(=O)OCC(CC)CCCC` (stereo not given) showed a GHS category of 5.
`C=CC(=C)C` returned a GHS category of 5.
Then `CC(C)(Oc1ccc(Cl)cc1)C(=O)NC(=O)NCN1CCOCC1`, with 5; and `CCOc1ccc(N(CCCC(=O)O)C(=O)c2ccc(Cl)cc2)cc1`, with 5; and `CN1C(CSCC(F)(F)F)Nc2cc(Cl)c(S(N)(=O)=O)cc2S1(=O)=O` (stereo not given), with 2.
The compound `CCCCCNC(=O)c1cnc2cccc(C)n2c1=O` registered a GHS category of 3.
In turn, `CCCCCCCCCCCCCC=O` yielded a GHS category of 5.
In turn, `COc1ccc2cc3[n+](cc2c1OC)CCc1cc2c(cc1-3)OCO2` registered a GHS category of 5.
For `NC(CSCC(=O)O)C(=O)O` (stereo not given) the value was 5; for `CC(C)COC(=O)Cc1ccccc1`, 5.
Consider `COc1cccc(C(=O)NN(C(=O)c2cc(C)cc(C)c2)C(C)(C)C)c1C`, for which the GHS category turned out to be 5.
For `Brc1cc(Oc2cc(Br)c(Br)c(Br)c2Br)c(Br)c(Br)c1Br` the value was 5; for `Cc1ccc(Nc2ccc(Nc3ccc(C)cc3S(=O)(=O)O)c3c2C(=O)c2c(O)ccc(O)c2C3=O)c(S(=O)(=O)O)c1`, 5.
Then `C=COCC1CCC(COC=C)CC1` (stereo not given), with 5; and `CCCCCCCC1CCCC(=O)O1` (stereo not given), with 5; and `C=C(C)C(=O)OCCOC(=O)NCCC(C)CC(C)(C)CNC(=O)OCCOC(=O)C(=C)C` (stereo not given), with 5.
Then `O=C1OCc2c(Cl)cccc21`, with 4; and `O=[N+]([O-])c1cccc(C=NOCc2cccc([N+](=O)[O-])c2)c1`, with 4.
The compound `CN1C(CCl)Nc2cc(Cl)c(S(N)(=O)=O)cc2S1(=O)=O` (stereo not given) gave a GHS category of 5.
`COC1=CC(=O)C[C@@H](C)[C@]12Oc1c(Cl)c(OC)cc(OC)c1C2=O`: the GHS category came to 5.
The compound `Clc1cc(Cl)c2oc(C3(Cn4cncn4)OCCO3)cc2c1` registered a GHS category of 4.
For `Clc1cccc(Cl)c1Nc1ccccc1` the value was 5; for `CNC(=O)C(=NNc1ccccc1[N+](=O)[O-])C(C)=O`, 5.
Consider `CN(C)CCOC(=O)C(c1ccccc1)C1(O)CCCC1` (stereo not given), for which the GHS category is listed as 5.
`C=CCN1CCC23c4c5ccc(O)c4OC2C(=O)CCC3(O)C1C5` (stereo not given) gave a GHS category of 4.
Then `COc1ccc(C2NC(=O)C(C)S2)cc1` (stereo not given), with 5.
As for `CC(C)=NO`, the GHS category stood at 5.
For `O=S(=O)(O)c1ccc(Cl)cc1` the value was 4; for `CCCCCCOC(=O)C(C)C`, 5.
For the compound `O=C1CCCCCCCCCCCCCCO1`, the GHS category is 5.
Then `COc1ccccc1C1C(Cl)C(=O)N1NC(=O)c1ccccc1O` (stereo not given), with 5; and `CCCCC1(CC)COC(Cn2cncn2)(c2cc3ccccc3o2)OC1` (stereo not given), with 4.
Then `CN1CN(C)CN(C)C1`, with 4; and `Cc1cc(C)[n+]([N-]C(=O)c2ccc(Cl)c(S(N)(=O)=O)c2)c(C)c1`, with 5.
For `OC(Cc1ccccc1Cl)(Cn1[nH]cnc1=S)C1(Cl)CC1` (stereo not given) the value was 5.
The compound `O=C1c2ccc3c4ccc5c6c(ccc(c7ccc(c2c37)C(=O)N1CCc1ccccc1)c64)C(=O)N(CCc1ccccc1)C5=O` came in with a GHS category of 5.
For the compound `CCC(=O)OCCC(C)CCC=C(C)C` (stereo not given), the GHS category turned out to be 5.
For `CC[N+](CC)(CC)C(C)OS(=O)(=O)C(F)(F)C(F)(F)C(F)(F)C(F)(F)F` (stereo not given), the GHS category was determined as 5.
Then `COc1cc(OC)c(NC(=O)c2cc3ccccc3cc2O)cc1Cl`, with 5; and `COc1cc2c(s1)C(O)=C(C(=O)Nc1ccccn1)N(C)S2(=O)=O`, with 3.
Consider `COc1ccccc1OCCNCC(O)COc1cccc2[nH]c3ccccc3c12` (stereo not given), for which the GHS category stood at 5.
Then `N[C@@H]1CONC1=O`, with 5.
For `CCc1ccc(-n2nnnc2CSCCC(=O)N(CC)CC)cc1` the value was 4; for `O=C1OCC[C@@H]1O`, 5.
For `CC(=O)N(C)C(=O)Oc1cccc2c1OCO2` the value was 4; for `c1ccc(OCC2COC(Cn3cncn3)(c3cc4ccccc4o3)O2)cc1` (stereo not given), 4.
